This passage reports decrease in activity results from PMC12263422, “Cryo-EM structure of the human THIK-1 K2P K^+ channel reveals a lower Y gate regulated by lipids and anesthetics” (Nature Structural & Molecular Biology, 2025).

This test addresses T1, R87D THIK-1 single channels (Homo sapiens, UniProt Q9HB14, R87D).
T1 construct: expressed in transfected cells; host or cells: Xenopus oocytes (mRNA injection)
As to the kind of experiment: Single-channel excised patch recordings of R87D THIK-1 at -100 mV with halothane. In kind it is cell-based. The procedure: Two-electrode voltage–clamp (TEVC) studies were performed in Xenopus oocytes. All animal use conformed to the Guide for the Care and Use of Laboratory Animals (NIH Publication 85–23), and all experiments using Xenopus toads were approved by the local ethics panels. Oocytes were stored at 17 °C in ND96 recording solution composed of (in mM): 96 NaCl, 2 KCl, 1.8 CaCl2, 1 MgCl2, 5 HEPES (pH 7.5 adjusted with NaOH and HCl), supplemented with Na-pyruvate (275 mg L^–1), theophylline (90 mg L^–1) and gentamicin (50 mg L^–1). Oocytes were injected with 1 ng mRNA for WT or mutant channels, and were incubated for 24–48 h at 17 °C. Two-electrode voltage clamp recordings were then performed as previously described[42],[43]. […] Currents were recorded with an EPC10 amplifier (HEKA Electronics) and sampled at 10 kHz or higher, with filtering set to 3 kHz (–3 dB) or higher, as appropriate for sampling rate. For measurements of GPCR activation, whole-cell currents were recorded for THIK-1 in transiently transfected HEK-293 cells. […] Single-channel currents were recorded with an Axopatch 200B amplifier through a Digidata 1440A digitizer (Molecular Devices). Data were filtered at 2 kHz and recorded at a 200-kHz sampling rate with the program Clampex (Molecular Devices). […]

T1 sequence (Q9HB14 whole entry R87D): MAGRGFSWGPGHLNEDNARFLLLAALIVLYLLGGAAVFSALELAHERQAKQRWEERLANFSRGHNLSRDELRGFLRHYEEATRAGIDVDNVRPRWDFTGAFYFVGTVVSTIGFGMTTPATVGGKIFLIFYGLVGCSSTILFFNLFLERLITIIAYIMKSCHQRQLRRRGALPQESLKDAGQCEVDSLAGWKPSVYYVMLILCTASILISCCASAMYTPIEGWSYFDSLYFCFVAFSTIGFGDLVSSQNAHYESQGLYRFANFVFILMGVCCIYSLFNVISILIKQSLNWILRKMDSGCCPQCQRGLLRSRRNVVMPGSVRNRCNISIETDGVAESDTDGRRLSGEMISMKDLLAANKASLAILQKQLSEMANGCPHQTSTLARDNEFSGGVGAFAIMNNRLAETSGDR

Compound `FC(F)(F)C(Cl)Br` (centres unmarked) [halothane] returned a decrease in activity (0.4% halothane) of 30% and a decrease in activity (1% halothane) of 75%.
